Here are results for eleven compounds from ChEMBL document CHEMBL1201862, “PubChem BioAssay data set” (2004).

The structures appear in SMILES notation.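 Grown in 96-well plates, cells were treated for 48 hours with each compound at five concentrations. Insufficient inhibition: endpoint recorded as highest concentration tested. Here, GI50 denotes the concentration required for 50% inhibition of growth.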 Active and inactive are the calls of the source. No stated cut-off is given here; in the data, active = GI50 up to about 1.1 µM and inactive = higher.

Among the test systems are A549; ACHN; DU-145; EKVX; HCC 2998; HCT-15; HOP-92; HT-29; Hs-578T; LOX IMVI; MDA-MB-231; Malme-3M; OVCAR-5; PC-3; SF-539; SK-MEL-5; SK-OV-3; SN12C; U-251; UACC-257.
Holding throughout (experiment): DTP human tumour cell line panel, 48 h

In general, GI50 refers to the concentration giving 50% growth inhibition. For `Nn1c(S)nnc1C12CC3CC(CC(C3)C1)C2`, the GI50 with A549 is > 100 µM (inactive); in the test with ACHN, > 100 µM (inactive); in the test with DU-145 it was > 100 µM (inactive); in the test with EKVX, > 100 µM (inactive); with HCC 2998, > 100 µM (inactive); with HCT-15, more than 100 µM. Moreover, the GI50 with HOP-92, in the test on HT-29, in the test on Hs-578T, in the test on LOX IMVI, in the test on MDA-MB-231 and with Malme-3M was > 100 µM (inactive) throughout. Further, the GI50 in the test on OVCAR-5, in the test with PC-3, with SF-539, in the test with SK-MEL-5, with SK-OV-3 and with SN12C was > 100 µM (inactive) in each case. In addition, in the test with U-251, the GI50 is > 100 µM (inactive).

Take `CC#CC#C/C(=C/C=CC(=O)OC)SC`: the GI50 in the test with A549 is > 100 µM (inactive); in the test with DU-145 it was > 100 µM (inactive); with EKVX it was > 100 µM (inactive); in the test on HCC 2998 it was > 100 µM (inactive); in the test with HCT-15, more than 100 µM; with HOP-92, > 100 µM (inactive). The GI50 in the test with HT-29, with Hs-578T, with LOX IMVI, in the test on MDA-MB-231, in the test with Malme-3M and in the test on OVCAR-5 was > 100 µM (inactive) throughout. Also, the GI50 in the test with PC-3, with SF-539, in the test on SK-MEL-5, in the test with SK-OV-3, in the test with SN12C and with U-251 was > 100 µM (inactive) throughout. The GI50 in the test on UACC-257 is > 100 µM (inactive).

Take `Fc1ccc(Oc2nc3ccccc3nc2-c2ccccc2)cc1`: the GI50 is > 100 µM (inactive) in the test with ACHN; > 100 µM (inactive) with DU-145; > 100 µM (inactive) with EKVX; > 100 µM (inactive) in the test on HCC 2998; more than 100 µM in the test with HCT-15; 76.9 µM (inactive) in the test with HOP-92. Further, the GI50 with HT-29 was > 100 µM (inactive); in the test with Hs-578T, 94.4 µM (inactive); in the test on LOX IMVI, > 100 µM (inactive); in the test with MDA-MB-231, > 100 µM (inactive); with Malme-3M it was > 100 µM (inactive); in the test with OVCAR-5, > 100 µM (inactive). In addition, the GI50 with PC-3 is > 100 µM (inactive); with SK-MEL-5 it was > 100 µM (inactive); with SK-OV-3, > 100 µM (inactive); with SN12C it was > 100 µM (inactive); with U-251 it was 50.5 µM (inactive); in the test on UACC-257, > 100 µM (inactive).

Consider `Fc1cccc(C2SCC3=Nc4ccccc4CN32)c1` (configuration not stated), for which the GI50 was 59.6 µM (inactive) in the test with A549; 36.9 µM (inactive) in the test on ACHN; 52.4 µM (inactive) in the test on DU-145; 25.4 µM (inactive) in the test with EKVX; 70.1 µM (inactive) in the test with HCC 2998; 58.9 µM with HCT-15. The GI50 in the test on HOP-92 was 84.1 µM (inactive); with HT-29 it was 21.3 µM (inactive); in the test with Hs-578T, > 10 µM (inactive); in the test with LOX IMVI, 40.6 µM (inactive); in the test on MDA-MB-231, > 100 µM (inactive); in the test with OVCAR-5, 32.1 µM (inactive). Besides, the GI50 in the test on PC-3 was 28.2 µM (inactive); in the test on SF-539 it was 47.5 µM (inactive); with SK-MEL-5, 17.9 µM (inactive); in the test on SK-OV-3, 39.6 µM (inactive); in the test on SN12C it was > 100 µM (inactive); in the test on U-251 it was 58.2 µM (inactive). Moreover, the GI50 in the test on UACC-257 is 97.9 µM (inactive).

For `CN(C)c1ccc(/C=C/c2cc(-c3ccccc3)[n+](C)n2-c2ccccc2)cc1`, the GI50 was 0.411 µM (active) in the test with A549; 1.44 µM (inactive) in the test with ACHN; 0.215 µM (active) in the test with DU-145; 0.138 µM (active) with EKVX; 1.64 µM (inactive) with HCC 2998; 3.61 µM in the test with HCT-15. The GI50 in the test on HOP-92 is 0.467 µM (active); with HT-29 it was 0.0995 µM (active); with Hs-578T, 0.0332 µM (active); with LOX IMVI it was 0.299 µM (active); in the test on MDA-MB-231 it was 0.242 µM (active); in the test with OVCAR-5, 1.6 µM (inactive). In addition, the GI50 in the test with PC-3 is 0.158 µM (active); with SF-539, 1.49 µM (inactive); in the test on SK-MEL-5, 0.0341 µM (active); with SK-OV-3, 0.401 µM (active); in the test on SN12C, 0.293 µM (active); in the test with U-251, 0.0573 µM (active). For the same compound, the GI50 with UACC-257 was 0.122 µM (active).

Take `Cc1ccc(CC(Cc2ccccc2C)C(=O)O)c(C(=O)O)c1` (configuration not stated): the GI50 in the test on A549 was > 100 µM (inactive); in the test on ACHN, > 100 µM (inactive); with DU-145, > 100 µM (inactive); in the test with EKVX, > 100 µM (inactive); in the test with HCC 2998, > 100 µM (inactive); with HCT-15, more than 100 µM. The GI50 in the test with HOP-92, in the test with HT-29, with Hs-578T, in the test on LOX IMVI, in the test with MDA-MB-231 and in the test on Malme-3M was > 100 µM (inactive) throughout. In addition, the GI50 with OVCAR-5, with PC-3, with SF-539, with SK-MEL-5, with SN12C and with U-251 was > 100 µM (inactive) in each case. Moreover, the GI50 in the test with UACC-257 is > 100 µM (inactive).

Take `CC(=O)OCC1OC(n2c3c(cc(C#N)c2=S)CCCCC3)C(OC(C)=O)C(OC(C)=O)C1OC(C)=O` (configuration not stated): the GI50 in the test on A549 was > 100 µM (inactive); in the test with ACHN it was > 100 µM (inactive); in the test on DU-145, > 100 µM (inactive); with HCC 2998, > 100 µM (inactive); in the test on HCT-15, more than 100 µM; in the test on HOP-92, > 100 µM (inactive). In addition, the GI50 with HT-29, in the test with Hs-578T, in the test on LOX IMVI, in the test on MDA-MB-231, in the test with Malme-3M and in the test with OVCAR-5 was > 100 µM (inactive) each time. The GI50 in the test on PC-3, in the test with SF-539, in the test with SK-MEL-5, with SN12C, in the test on U-251 and in the test on UACC-257 was > 100 µM (inactive) each time.

For `CCC1c2[nH]c3ccccc3c2C[C@H]2C(=O)NC(C)C(=O)N12` (some centres not stated), the GI50 was > 100 µM (inactive) in the test with A549; > 100 µM (inactive) in the test with ACHN; > 100 µM (inactive) with DU-145; > 100 µM (inactive) in the test on EKVX; > 100 µM (inactive) with HCC 2998; more than 100 µM with HCT-15. Besides, the GI50 with HOP-92, with HT-29, in the test with Hs-578T, in the test on LOX IMVI, with MDA-MB-231 and in the test with Malme-3M was > 100 µM (inactive) each time. In addition, the GI50 in the test on OVCAR-5, with PC-3, in the test on SK-MEL-5, with SK-OV-3, with SN12C and in the test on U-251 was > 100 µM (inactive) in each case. In addition, the GI50 with UACC-257 was > 100 µM (inactive).

`O=P1(N(CCCl)CCCl)Oc2c(Cl)cc(Cl)c(Cl)c2Cc2c(Cl)c(Cl)cc(Cl)c2O1`: the GI50 is 38.5 µM (inactive) in the test on A549; 51.1 µM (inactive) in the test on ACHN; 71.1 µM (inactive) in the test on DU-145; 92.3 µM (inactive) in the test on EKVX; 25.2 µM (inactive) with HCC 2998; 48 µM with HCT-15. For the same compound, the GI50 was 24.5 µM (inactive) with HOP-92; 41.4 µM (inactive) in the test with HT-29; 30.3 µM (inactive) in the test on Hs-578T; 39.8 µM (inactive) with LOX IMVI; 42.4 µM (inactive) in the test with MDA-MB-231; 30.8 µM (inactive) in the test with OVCAR-5. The GI50 with PC-3 was 23.2 µM (inactive); in the test with SF-539 it was > 100 µM (inactive); in the test on SK-MEL-5, 77.3 µM (inactive); in the test with SK-OV-3, 43.2 µM (inactive); in the test with SN12C, 61.9 µM (inactive); in the test on U-251 it was 96.6 µM (inactive). Also, the GI50 with UACC-257 is 59.7 µM (inactive).

As to `CC(C)(C)c1ccc(-c2nnc(-c3cc(C#N)cc(-c4nnc(-c5ccc(C(C)(C)C)cc5)o4)c3)o2)cc1`, the GI50 is > 100 µM (inactive) with A549; > 100 µM (inactive) in the test on ACHN; > 100 µM (inactive) in the test on DU-145; > 100 µM (inactive) with EKVX; > 100 µM (inactive) in the test with HCC 2998; more than 100 µM in the test with HCT-15. For the same compound, the GI50 in the test on HOP-92 is > 100 µM (inactive); in the test on HT-29, > 100 µM (inactive); in the test on Hs-578T, 33 µM (inactive); in the test on LOX IMVI, > 100 µM (inactive); in the test with MDA-MB-231 it was > 100 µM (inactive); in the test on Malme-3M, > 100 µM (inactive). In addition, the GI50 in the test on OVCAR-5, in the test on PC-3, in the test with SK-MEL-5, in the test on SK-OV-3, in the test with SN12C and in the test on U-251 was > 100 µM (inactive) throughout. Besides, the GI50 in the test on UACC-257 was > 100 µM (inactive).

Take `Cc1nc(Cl)c2sc(=S)n(-c3ccc(F)cc3)c2n1`: the GI50 was 12.8 µM (inactive) with A549; 13.9 µM (inactive) in the test with ACHN; 1.51 µM (inactive) in the test on DU-145; 13.2 µM (inactive) in the test on EKVX; 4.49 µM (inactive) in the test with HCC 2998; 3.21 µM in the test with HCT-15. The GI50 in the test with HOP-92 was 14.4 µM (inactive); with HT-29, 2.28 µM (inactive); in the test on Hs-578T, 1.86 µM (inactive); with LOX IMVI it was 1.77 µM (inactive); in the test with MDA-MB-231 it was 7.98 µM (inactive); with Malme-3M, 10.6 µM (inactive). In addition, the GI50 in the test on OVCAR-5 is 10.8 µM (inactive); with PC-3, 19.9 µM (inactive); in the test on SK-MEL-5 it was 3.04 µM (inactive); with SK-OV-3, 13.2 µM (inactive); in the test on SN12C, 5.52 µM (inactive); in the test on U-251, 5.06 µM (inactive). Also, the GI50 in the test with UACC-257 is 2.54 µM (inactive).
